Measured values from ChEMBL document CHEMBL4622878, “Cytotoxic Activity of Germacrane-Type Sesquiterpene Lactones from Dimerostemma aspilioides” (J Nat Prod, 2020).
Activity calls are given as the source filed them. The calls are words filed in the database; no cut-off is given here.

Assays:
K562-Lucena 1 [1] = experiment: Cytotoxicity against human K562-Lucena 1 cells after 48 hrs by MTT assay; assay type: functional, cell-based; conditions: K562-Lucena 1, 48 h
CCRF-CEM = experiment: Cytotoxicity against human CCRF-CEM cells after 48 hrs by MTT assay; assay type: functional, cell-based
ADR5000 cell line = experiment: Cytotoxicity against human CEM/ADR5000 cells after 48 hrs by MTT assay; assay type: functional, cell-based; conditions: ADR5000, 48 h
K562 [2] = experiment: Cytotoxicity against human K562 cells after 48 hrs by MTT assay; assay type: functional, cell-based; conditions: K562, 48 h
K562-Lucena 1 [3] = experiment: Induction of cell cycle arrest in human K562-Lucena 1 cells assessed as necrotic cells at 5.1 uM after 48 hrs by propidium iodide staining based flow cytometric analysis (reference value: 2.15%); assay type: functional
K562 [4] = experiment: Induction of apoptosis in human K562 cells assessed as viable cells at 2.3 uM after 48 hrs by Annexin V-FITC/PI double staining based flow cytometry analysis (Rvb =97.8%); assay type: functional; conditions: K562, 48 h, read-out: Activity
PBMC = experiment: Cytotoxicity against PBMC (unknown origin) after 48 hrs by MTT assay; assay type: cell-based
K562-Lucena 1 [5] = experiment: Induction of cell cycle arrest in human K562-Lucena 1 cells assessed as early apoptotic cells at 5.1 uM after 48 hrs by propidium iodide staining based flow cytometric analysis (reference value: 7.57%); assay type: functional
K562 [6] = experiment: Induction of cell cycle arrest in human K562 cells assessed as decrease in accumulation of cells at G1 phase at 2.3 uM after 24 hrs by propidium iodide staining based flow cytometric analysis; assay type: functional
K562 [7] = experiment: Induction of cell cycle arrest in human K562 cells at 2.3 uM after 48 hrs by propidium iodide staining based flow cytometric analysis; assay type: functional
K562-Lucena 1 [8] = experiment: Induction of cell cycle arrest in human K562-Lucena 1 cells assessed as viable cells at 5.1 uM after 48 hrs by propidium iodide staining based flow cytometric analysis (reference value: 87.1%); assay type: functional; conditions: K562-Lucena 1, 48 h, read-out: Activity
K562 [9] = experiment: Induction of morphological changes in human K562 cells assessed as appearance of condensed chromatin at 2.3 uM incubated for 48 hrs by DAPI staining based fluorescence microscopy; assay type: functional, cell-based
K562-Lucena 1 [10] = experiment: Induction of cell cycle arrest in human K562-Lucena 1 cells assessed as increase in hypodiploid cells at sub-G1 phase at 5.1 uM after 48 hrs by propidium iodide staining based flow cytometric analysis; assay type: functional
K562-Lucena 1 [11] = experiment: Induction of morphological changes in human K562-Lucena 1 cells assessed as appearance of apoptotic bodies at 5.1 uM incubated for 48 hrs by DAPI staining based fluorescence microscopy; assay type: functional, cell-based
K562-Lucena 1 [12] = experiment: Induction of cell cycle arrest in human K562-Lucena 1 cells assessed as early apoptotic cells at 5.1 uM after 24 hrs by propidium iodide staining based flow cytometric analysis (reference value: 7.79%); assay type: functional
K562 [13] = experiment: Induction of cell cycle arrest in human K562 cells assessed as accumulation of cells at G2/M phase at 2.3 uM after 24 hrs by propidium iodide staining based flow cytometric analysis (reference value: 0.4 +/- 0.2%); assay type: functional
K562 [14] = experiment: Induction of apoptosis in human K562 cells assessed as late apoptotic cells at 2.3 uM after 24 hrs by Annexin V-FITC/PI double staining based flow cytometry analysis (reference value: 0.79%); assay type: functional
K562 [15] = experiment: Induction of apoptosis in human K562 cells assessed as early apoptotic cells at 2.3 uM after 24 hrs by Annexin V-FITC/PI double staining based flow cytometry analysis (reference value: 2.76%); assay type: functional
K562 [16] = experiment: Induction of apoptosis in human K562 cells assessed as early apoptotic cells at 2.3 uM after 48 hrs by Annexin V-FITC/PI double staining based flow cytometry analysis (reference value: 1.67%); assay type: functional
K562 [17] = experiment: Induction of apoptosis in human K562 cells assessed as necrotic cells at 2.3 uM after 24 hrs by Annexin V-FITC/PI double staining based flow cytometry analysis (reference value: 0.085%); assay type: functional
K562 [18] = experiment: Induction of cell cycle arrest in human K562 cells assessed as increase in hypodiploid cells at sub-G1 phase at 2.3 uM after 48 hrs by propidium iodide staining based flow cytometric analysis; assay type: functional
K562-Lucena 1 [19] = experiment: Induction of cell cycle arrest in human K562-Lucena 1 cells assessed as accumulation of cells at G2/M phase at 5.1 uM after 24 hrs by propidium iodide staining based flow cytometric analysis (reference value: 3.3 +/- 0.1%); assay type: functional
K562-Lucena 1 [20] = experiment: Induction of DNA fragmentation in human K562-Lucena 1 cells at 5.1 uM incubated for 48 hrs by DAPI staining based fluorescence microscopy; assay type: functional, cell-based
K562-Lucena 1 [21] = experiment: Induction of cell cycle arrest in human K562-Lucena 1 cells assessed as necrotic cells at 5.1 uM after 24 hrs by propidium iodide staining based flow cytometric analysis (reference value: 1.03%); assay type: functional
K562-Lucena 1 [22] = experiment: Induction of morphological changes in human K562-Lucena 1 cells assessed as appearance of condensed chromatin at 5.1 uM incubated for 48 hrs by DAPI staining based fluorescence microscopy; assay type: functional, cell-based
K562-Lucena 1 [23] = experiment: Induction of cell cycle arrest in human K562-Lucena 1 cells assessed as late apoptotic cells at 5.1 uM after 24 hrs by propidium iodide staining based flow cytometric analysis (reference value: 3.15%); assay type: functional
K562 [24] = experiment: Induction of apoptosis in human K562 cells assessed as necrotic cells at 2.3 uM after 48 hrs by Annexin V-FITC/PI double staining based flow cytometry analysis (reference value: 0.13%); assay type: functional
K562-Lucena 1 [25] = experiment: Induction of cell cycle arrest in human K562-Lucena 1 cells assessed as late apoptotic cells at 5.1 uM after 48 hrs by propidium iodide staining based flow cytometric analysis (reference value: 3.23%); assay type: functional
K562 [26] = experiment: Induction of apoptosis in human K562 cells assessed as viable cells at 2.3 uM after 24 hrs by Annexin V-FITC/PI double staining based flow cytometry analysis (Rvb =96.4%); assay type: functional; conditions: K562, 24 h, read-out: Activity
K562 [27] = experiment: Induction of morphological changes in human K562 cells assessed as appearance of apoptotic bodies at 2.3 uM incubated for 48 hrs by DAPI staining based fluorescence microscopy; assay type: functional, cell-based
K562-Lucena 1 [28] = experiment: Induction of cell cycle arrest in human K562-Lucena 1 cells assessed as viable cells at 5.1 uM after 24 hrs by propidium iodide staining based flow cytometric analysis (reference value: 88%); assay type: functional; conditions: K562-Lucena 1, 24 h, read-out: Activity
K562 [29] = experiment: Induction of DNA fragmentation in human K562 cells at 2.3 uM incubated for 48 hrs by DAPI staining based fluorescence microscopy; assay type: functional, cell-based
K562 [30] = experiment: Induction of apoptosis in human K562 cells assessed as late apoptotic cells at 2.3 uM after 48 hrs by Annexin V-FITC/PI double staining based flow cytometry analysis (reference value: 0.41%); assay type: functional
K562-Lucena 1 [31] = experiment: Induction of cell cycle arrest in human K562-Lucena 1 cells at 5.1 uM after 48 hrs by propidium iodide staining based flow cytometric analysis; assay type: functional
K562-Lucena 1 [32] = experiment: Induction of cell cycle arrest in human K562-Lucena 1 cells assessed as decrease in accumulation of cells at G1 phase at 5.1 uM after 24 hrs by propidium iodide staining based flow cytometric analysis; assay type: functional
K562 [33] = experiment: Induction of cell cycle arrest in human K562 cells assessed as decrease in accumulation of cells at S phase at 2.3 uM after 24 hrs by propidium iodide staining based flow cytometric analysis; assay type: functional

In the case of `C=C(CO)C(=O)O[C@H]1C[C@@]2(C=O)OC2CC/C(C)=C/[C@H]2OC(=O)C(=C)[C@H]12` (stereo not given in full), the IC50 (K562-Lucena 1 [1]) is reported as over 10 µM, the IC50 (CCRF-CEM) is reported as 2000 nM and the IC50 (ADR5000 cell line) is reported as 4600 nM. The IC50 (K562 [2]) was 6.9 µM.

With `C=C(C)C(=O)O[C@H]1C/C(CO)=C/CC[C@@]2(C)O[C@H]2[C@H]2OC(=O)C(=C)[C@@H]21` the Activity (K562-Lucena 1 [3]) was 3.29%, the viability at 2.3 µM (K562 [4]) was 66.4% and the IC50 (PBMC) was 79.9 µM. The Activity (K562-Lucena 1 [5]) was 31.4%, the Activity (K562 [6]) was “inactive” and the Activity (K562 [7]) was “inactive”. For the same compound, the viability at 5.1 µM (K562-Lucena 1 [8]) was 54.5%, the Activity (K562 [9]) was “Active” and the IC50 (K562-Lucena 1 [1]) was 5.1 µM. The Activity (K562-Lucena 1 [10]) was “Active”, the Activity (K562-Lucena 1 [11]) was “Active” and the Activity (K562-Lucena 1 [12]) was 14.7%. It also gave an Activity (K562 [13]) of 15.1%, an Activity (K562 [14]) of 0.64% and an Activity (K562 [15]) of 2.26%. The Activity (K562 [16]) was 30.6%, the Activity (K562 [17]) was 0.42% and the Activity (K562 [18]) was “Active”. The Activity (K562-Lucena 1 [19]) was 23.2%, the IC50 (CCRF-CEM) was 420 nM and the Activity (K562-Lucena 1 [20]) was “Active”. For the same compound, the Activity (K562-Lucena 1 [21]) was 1.38%, the Activity (K562-Lucena 1 [22]) was “Active” and the Activity (K562-Lucena 1 [23]) was 3.46%. For the same compound, the Activity (K562 [24]) was 0.56%, the Activity (K562-Lucena 1 [25]) was 10.8% and the viability at 2.3 µM (K562 [26]) was 96.7%. For the same compound, the Activity (K562 [27]) was “Active”, the viability at 5.1 µM (K562-Lucena 1 [28]) was 80.4% and the IC50 (ADR5000 cell line) was 400 nM. For the same compound, the Activity (K562 [29]) was “Active”, the Activity (K562 [30]) was 2.38% and the Activity (K562-Lucena 1 [31]) was “inactive”. The Activity (K562-Lucena 1 [32]) was “Active”, the IC50 (K562 [2]) was 2.3 µM and the Activity (K562 [33]) was “inactive”.
